Laboratory results from ChEMBL document CHEMBL4765318 (Eur J Med Chem, 2020).
Active and inactive are the calls of the source. No cut-off for these calls is given here.

Experiments:
Raji = assay: Antiproliferative activity against human Raji cells assessed as reduction in cell viability incubated for 24 hrs by CCK-8 assay; format: functional, cell-based
[1] = biological target: T1, Tyrosine-protein kinase BTK (Homo sapiens, UniProt Q06187); details: dose 100.0 nM
Description: Inhibition of BTK (unknown origin) at 100 nM by ADP-Glo assay relative to control

Ramos [2] = assay: Antiproliferative activity against human Ramos cells assessed as reduction in cell viability incubated for 24 hrs by CCK-8 assay; format: functional, cell-based
[3] = biological target: T1, Tyrosine-protein kinase BTK; assay: Inhibition of BTK (unknown origin) by ADP-Glo assay
[4] = biological target: T1, Tyrosine-protein kinase BTK; assay: Inhibition of BTK in human Ramos cells assessed as reduction in BTK phosphorylation at Tyr223 residue at 10 uM incubated for 4 hrs by Western blot analysis relative to control; format: cell-based
[5] = biological target: T1, Tyrosine-protein kinase BTK; assay: Inhibition of BTK in human Ramos cells assessed as reduction in BTK phosphorylation at Tyr223 residue at 10 uM incubated for 24 hrs by Western blot analysis; format: cell-based
Ramos [6] = assay: Induction of apoptosis in human Ramos cells assessed as early apoptotic cells at 5 uM incubated for 24 hrs by annexin V-FITC and PI staining based flow cytometry analysis (reference value: 1.9 %); format: functional
Ramos [7] = assay: Induction of cell cycle arrest in human Ramos cells assessed as S phase accumulation at 5 uM incubated for 24 hrs by PI staining based flow cytometry analysis (reference value: 37.38 %); format: functional
[8] = biological target: T1, Tyrosine-protein kinase BTK; assay: Inhibition of BTK in human Ramos cells assessed as reduction in BTK phosphorylation at Tyr223 residue at 10 uM incubated for 4 hrs followed by compound wash-out and measured upto 24 hrs by Western blot analysis; format: cell-based
[9] = biological target: Epidermal growth factor receptor (Homo sapiens, UniProt P00533); assay: Inhibition of EGFR (unknown origin) by ADP-Glo assay
Chain of Epidermal growth factor receptor (P00533 whole entry): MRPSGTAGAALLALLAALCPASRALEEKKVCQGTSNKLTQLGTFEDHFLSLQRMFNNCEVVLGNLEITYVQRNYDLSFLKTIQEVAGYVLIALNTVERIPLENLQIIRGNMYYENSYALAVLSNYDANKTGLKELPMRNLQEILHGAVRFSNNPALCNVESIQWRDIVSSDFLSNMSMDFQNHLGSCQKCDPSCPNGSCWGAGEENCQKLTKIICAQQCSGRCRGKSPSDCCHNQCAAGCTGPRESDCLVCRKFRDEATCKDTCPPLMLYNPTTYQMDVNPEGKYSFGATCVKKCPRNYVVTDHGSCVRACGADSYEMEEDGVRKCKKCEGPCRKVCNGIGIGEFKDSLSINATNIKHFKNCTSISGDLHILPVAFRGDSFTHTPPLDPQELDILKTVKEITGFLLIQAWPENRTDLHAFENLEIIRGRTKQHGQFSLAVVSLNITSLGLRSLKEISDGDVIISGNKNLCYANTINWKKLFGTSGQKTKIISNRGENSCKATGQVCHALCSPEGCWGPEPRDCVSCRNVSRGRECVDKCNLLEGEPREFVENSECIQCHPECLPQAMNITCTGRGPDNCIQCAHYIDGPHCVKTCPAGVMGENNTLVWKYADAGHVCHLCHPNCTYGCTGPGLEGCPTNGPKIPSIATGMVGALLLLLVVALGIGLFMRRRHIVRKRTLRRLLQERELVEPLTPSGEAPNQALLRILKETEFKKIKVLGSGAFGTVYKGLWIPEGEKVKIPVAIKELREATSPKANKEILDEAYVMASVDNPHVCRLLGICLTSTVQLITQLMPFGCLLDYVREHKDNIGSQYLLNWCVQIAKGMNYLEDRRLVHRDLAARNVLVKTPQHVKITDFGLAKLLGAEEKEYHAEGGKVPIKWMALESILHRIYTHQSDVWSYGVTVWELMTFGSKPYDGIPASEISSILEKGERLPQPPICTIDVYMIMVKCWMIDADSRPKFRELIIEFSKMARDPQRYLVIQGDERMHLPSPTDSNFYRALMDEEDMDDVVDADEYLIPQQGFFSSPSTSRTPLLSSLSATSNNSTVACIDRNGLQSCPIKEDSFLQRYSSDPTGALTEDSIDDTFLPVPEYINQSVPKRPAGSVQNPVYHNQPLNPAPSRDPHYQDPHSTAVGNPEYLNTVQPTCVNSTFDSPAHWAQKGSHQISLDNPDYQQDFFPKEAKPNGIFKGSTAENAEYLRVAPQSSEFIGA

Ramos [10] = assay: Induction of apoptosis in human Ramos cells assessed as necrotic cells at 5 uM incubated for 24 hrs by annexin V-FITC and PI staining based flow cytometry analysis (reference value: 2.1 %); format: functional
Ramos [11] = assay: Induction of cell cycle arrest in human Ramos cells assessed as subG1 phase accumulation at 5 uM incubated for 24 hrs by PI staining based flow cytometry analysis (reference value: 2.53 %); format: functional
Ramos [12] = assay: Induction of apoptosis in human Ramos cells assessed as late apoptotic cells at 5 uM incubated for 24 hrs by annexin V-FITC and PI staining based flow cytometry analysis (reference value: 2.2 %); format: functional
[13] = biological target: Proto-oncogene tyrosine-protein kinase Src (Homo sapiens, UniProt P12931); assay: Inhibition of SRC (unknown origin) by ADP-Glo assay
Chain of Proto-oncogene tyrosine-protein kinase Src (P12931 2-536 limits assumed): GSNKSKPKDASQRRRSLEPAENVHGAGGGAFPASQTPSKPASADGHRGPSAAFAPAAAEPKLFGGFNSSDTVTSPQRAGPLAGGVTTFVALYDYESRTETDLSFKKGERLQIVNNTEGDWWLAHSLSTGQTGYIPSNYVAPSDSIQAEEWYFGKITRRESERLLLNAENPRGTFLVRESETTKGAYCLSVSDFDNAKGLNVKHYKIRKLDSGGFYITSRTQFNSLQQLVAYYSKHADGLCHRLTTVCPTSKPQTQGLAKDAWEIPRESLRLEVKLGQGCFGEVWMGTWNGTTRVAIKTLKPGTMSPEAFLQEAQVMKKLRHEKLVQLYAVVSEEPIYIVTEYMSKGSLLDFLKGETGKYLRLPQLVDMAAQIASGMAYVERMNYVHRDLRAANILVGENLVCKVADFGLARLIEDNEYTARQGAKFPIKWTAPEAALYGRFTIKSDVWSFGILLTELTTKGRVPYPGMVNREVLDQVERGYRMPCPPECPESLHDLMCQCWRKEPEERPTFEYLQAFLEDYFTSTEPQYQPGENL

[14] = biological target: T2, Tyrosine-protein kinase ITK/TSK (Homo sapiens, UniProt Q08881); assay: Inhibition of ITK (unknown origin) by ADP-Glo assay
T2 sequence (Q08881 whole entry): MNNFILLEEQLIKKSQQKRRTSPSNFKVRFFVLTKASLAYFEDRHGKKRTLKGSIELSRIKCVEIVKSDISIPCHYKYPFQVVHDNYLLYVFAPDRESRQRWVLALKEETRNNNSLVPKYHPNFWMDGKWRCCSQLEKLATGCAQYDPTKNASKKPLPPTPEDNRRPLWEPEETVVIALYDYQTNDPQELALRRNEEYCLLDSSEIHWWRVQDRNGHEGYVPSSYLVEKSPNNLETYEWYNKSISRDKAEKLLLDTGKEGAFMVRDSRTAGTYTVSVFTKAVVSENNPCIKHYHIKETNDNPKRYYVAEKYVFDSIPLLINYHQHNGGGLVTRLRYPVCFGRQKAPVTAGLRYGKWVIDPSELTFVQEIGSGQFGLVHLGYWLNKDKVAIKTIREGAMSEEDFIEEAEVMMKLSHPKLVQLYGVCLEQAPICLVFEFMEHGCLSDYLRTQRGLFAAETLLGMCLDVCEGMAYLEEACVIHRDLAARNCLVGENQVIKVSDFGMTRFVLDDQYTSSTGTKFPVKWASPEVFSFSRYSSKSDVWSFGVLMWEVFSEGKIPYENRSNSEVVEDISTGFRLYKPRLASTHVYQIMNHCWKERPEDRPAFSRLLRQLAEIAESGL

Ramos [15] = assay: Induction of cell cycle arrest in human Ramos cells assessed as G2/M phase accumulation at 5 uM incubated for 24 hrs by PI staining based flow cytometry analysis (reference value: 20.96 %); format: functional
Ramos [16] = assay: Induction of cell cycle arrest in human Ramos cells assessed as G0/G1 phase accumulation at 5 uM incubated for 24 hrs by PI staining based flow cytometry analysis (reference value: 39.13 %); format: functional
[17] = biological target: T1, Tyrosine-protein kinase BTK; assay: Inhibition of BTK in human TMD8 cells assessed as reduction in cell proliferation incubated for 24 hrs by CCK-8 assay; format: cell-based
[18] = biological target: Tyrosine-protein kinase Blk (Homo sapiens, UniProt P51451); assay: Inhibition of BLK (unknown origin) by ADP-Glo assay
Chain of Tyrosine-protein kinase Blk (P51451 whole entry): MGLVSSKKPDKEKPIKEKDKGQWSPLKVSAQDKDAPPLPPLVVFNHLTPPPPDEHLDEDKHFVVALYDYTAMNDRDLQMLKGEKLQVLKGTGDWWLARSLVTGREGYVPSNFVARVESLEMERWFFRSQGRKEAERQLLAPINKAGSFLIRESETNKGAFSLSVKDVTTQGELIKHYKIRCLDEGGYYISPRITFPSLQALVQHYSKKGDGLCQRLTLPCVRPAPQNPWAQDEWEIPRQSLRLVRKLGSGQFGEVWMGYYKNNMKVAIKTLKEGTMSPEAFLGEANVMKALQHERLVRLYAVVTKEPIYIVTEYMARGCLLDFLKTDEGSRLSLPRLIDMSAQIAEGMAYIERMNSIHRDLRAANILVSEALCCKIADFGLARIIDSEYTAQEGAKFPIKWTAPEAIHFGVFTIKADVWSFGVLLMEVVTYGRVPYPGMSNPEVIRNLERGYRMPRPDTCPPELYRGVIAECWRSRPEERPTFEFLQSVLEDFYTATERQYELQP

Ramos [19] = assay: Induction of apoptosis in human Ramos cells assessed as viable cells at 5 uM incubated for 24 hrs by annexin V-FITC and PI staining based flow cytometry analysis (reference value: 93.8 %); format: functional
[20] = biological target: T1, Tyrosine-protein kinase BTK; assay: Inhibition of BTK in human Ramos cells assessed as reduction in PLCgamma2 phosphorylation at Tyr557 residue at 3 uM incubated for 24 hrs by Western blot analysis; format: cell-based

T1 sequence (Q06187 whole entry): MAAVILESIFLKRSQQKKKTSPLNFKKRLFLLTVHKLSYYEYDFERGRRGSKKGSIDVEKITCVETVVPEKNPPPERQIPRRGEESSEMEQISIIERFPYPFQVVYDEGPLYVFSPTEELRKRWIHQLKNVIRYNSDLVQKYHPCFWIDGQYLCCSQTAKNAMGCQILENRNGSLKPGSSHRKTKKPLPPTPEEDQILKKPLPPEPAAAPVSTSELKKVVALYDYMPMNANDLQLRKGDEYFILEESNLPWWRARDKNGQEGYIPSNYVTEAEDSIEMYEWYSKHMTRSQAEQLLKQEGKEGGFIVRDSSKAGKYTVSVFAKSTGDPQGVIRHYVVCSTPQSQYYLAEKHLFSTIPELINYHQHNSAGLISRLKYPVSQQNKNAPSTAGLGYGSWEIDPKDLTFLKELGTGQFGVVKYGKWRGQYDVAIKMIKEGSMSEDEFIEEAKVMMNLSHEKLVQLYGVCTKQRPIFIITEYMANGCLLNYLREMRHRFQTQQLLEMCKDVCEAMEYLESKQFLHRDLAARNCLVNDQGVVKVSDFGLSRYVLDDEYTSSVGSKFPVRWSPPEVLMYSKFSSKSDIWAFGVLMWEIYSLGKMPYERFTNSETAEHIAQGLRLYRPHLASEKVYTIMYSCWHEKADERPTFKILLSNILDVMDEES

Row | Structure (SMILES) | IC50 (Raji) | inhibition [1] | IC50 (Ramos [2]) | further results
1 | C=CC(=O)Nc1cccc(Nc2nc(N)nc(Nc3ccc(OCCOC)cc3)n2)c1 | 18.3 µM | 27.7% | 18.9 µM | –
2 | C=CC(=O)Nc1cccc(Nc2ncnc(Nc3ccc(-c4ccc(F)nc4)cc3)n2)c1 | 3.25 µM | 46.8% | 59.2 µM | –
3 | C=CC(=O)N1CCc2ccc(Nc3ncnc(Nc4ccc(C(=O)N5CCCCC5)cc4)n3)cc21 | 2.84 µM | 75.8% | – | IC50 [3]: 54.3 nM
4 | C=CC(=O)N1CCC[C@@H](n2nc(-c3ccc(Oc4ccccc4)cc3)c3c(N)ncnc32)C1 [IBRUTINIB] | 12.6 µM | – | 1.35 µM | Activity (Ramos [6]): 1.9%; Activity (Ramos [7]): 29.22%; Activity (Ramos [10]): 3.5%; Activity (Ramos [11]): 15.11%; Activity (Ramos [12]): 12.5%; Activity (Ramos [15]): 26.95%; Activity (Ramos [16]): 28.72%; Activity (Ramos [19]): 82.1%
5 | C=CC(=O)Nc1cccc(Nc2nc(Cl)nc(Nc3ccc(OCCOC)cc3)n2)c1 | – | 10% | – | –
6 | C=CC(=O)Nc1cccc(Nc2ncnc(Nc3ccc(-c4ccc(Cl)nc4)cc3)n2)c1 | – | 36.7% | 160 µM | –
7 | C=CC(=O)Nc1cccc(Nc2ncnc(Nc3ccc(-c4ccc(OC)nc4)cc3)n2)c1 | – | 32.7% | – | –
8 | C=CC(=O)Nc1cccc(Nc2nc(N)nc(Nc3ccc(Oc4ccccc4)cc3)n2)c1 | 8.32 µM | 17.1% | 20 µM | –
9 | C=CC(=O)Nc1cccc(Nc2ncnc(Nc3ccc(-c4cccnc4)cc3)n2)c1 | 12.4 µM | 66.6% | > 100 µM | –
10 | C=CC(=O)Nc1cccc(Nc2nc(Cl)nc(Nc3ccc(Oc4ccccc4)cc3)n2)c1 | 15.7 µM | 7.3% | 12.3 µM | –
11 | C=CC(=O)Nc1cccc(Nc2ncnc(Nc3ccc(Oc4ccc(OC)cc4)cc3)n2)c1 | – | 23.4% | > 100 µM | –
12 | C=CC(=O)Nc1cccc(Nc2ncnc(Nc3ccc(-c4ccc(C)nc4)cc3)n2)c1 | 13.8 µM | 55.7% | – | –

Further lines, with some results ahead:

Row | IC50 (Raji) | inhibition [1] | IC50 (Ramos [2]) | Structure (SMILES) | further results
13 | 4.62 µM | 8.9% | 24.4 µM | CC#CC(=O)Nc1cccc(Nc2ncnc(Nc3ccc(C(=O)N4CCCCC4)cc3)n2)c1 | IC50 [3]: > 1000 nM
14 | 5.14 µM | 91.1% | 6.14 µM | C=CC(=O)Nc1cccc(Nc2ncnc(Nc3ccc(C(=O)N4CCCCC4)cc3)n2)c1 | inhibition [4]: 100%; inhibition [5]: Active; Activity (Ramos [6]): 2.1%; Activity (Ramos [7]): 35.2%; inhibition [8]: Active; IC50 [9]: 31 nM; Activity (Ramos [10]): 2.4%; Activity (Ramos [11]): 10.43%; Activity (Ramos [12]): 10.8%; IC50 [3]: 21 nM; IC50 [13]: 524 nM; IC50 [14]: 2620 nM; Activity (Ramos [15]): 25.14%; Activity (Ramos [16]): 29.23%; inhibition [17]: Dose-dependent effect; IC50 [18]: 594 nM; viability at 5 µM (Ramos [19]; Homo sapiens, Ramos, read-out: Activity): 84.7%; inhibition [20]: Active
15 | 125 µM | 41.6% | > 100 µM | C=CC(=O)Nc1cccc(Nc2ncnc(Nc3ccc(C(=O)Nc4ccc(C)cn4)cc3)n2)c1 | –
16 | 30.6 µM | 39.1% | 48.5 µM | C=CC(=O)Nc1cc(Nc2ncnc(Nc3ccc(C(=O)N4CCCCC4)cc3)n2)ccc1C | IC50 [3]: 146 nM
17 | 15.6 µM | 56.3% | – | C=CC(=O)Nc1cccc(Nc2ncnc(Nc3ccc(C(=O)Nc4ccccn4)cc3)n2)c1 | –
18 | 13.8 µM | 4.8% | 13.2 µM | C/C=C/C(=O)Nc1cccc(Nc2ncnc(Nc3ccc(C(=O)N4CCCCC4)cc3)n2)c1 | IC50 [3]: > 1000 nM
19 | 22.2 µM | 77.5% | 13.2 µM | C=CC(=O)Nc1cccc(Nc2ncnc(Nc3ccc(C(=O)N4CCOCC4)cc3)n2)c1 | –
20 | 105 µM | 57.1% | 181 µM | C=CC(=O)Nc1cccc(Nc2ncnc(Nc3ccc(OCCOC)cc3)n2)c1 | –
